Source: patent publication US8883798B2, “Pyrimidine compounds inhibiting the formation of nitric oxide and prostaglandin E2, method of production thereof and use thereof” (Ustav Organicke Chemie a Biochemie Akademie Ved CR, V.V.I., priority 2011, dated 2014)

What was measured:
[1] = test system: production of prostaglandin E2 (PGE2); assay: Production of prostaglandin E2 (PGE2) in cultures of mouse peritoneal cells stimulated with LPS (ELISA kit); format: cell-based, mice; details: for Production of prostaglandins IC50 (μmol · 1^−1) average value and range of values: Table 3B, 6 h
Experimental: (§1) Under in vitro conditions, the effect of the pyrimidine compounds according to this invention was tested in terms of the production of nitric oxide (NO) and in terms of the production of prostaglandin E2 (PGE2) in cultures of the peritoneal cells of mice.
The influence on the production of prostaglandin E2 (PGE2) in vitro caused by the activity of the pyrimidine compounds according to the submitted invention was determined in cultures of the peritoneal cells of mice using a commercial kit (R&DSystems). The concentrations of PGE2 after lipopolysacharide (LPS) stimulation reached in the individual experiments values in a range of 22 to 91 ng·ml^−1 and for the purposes of comparison between the experiments were considered as 100%. The influence of the substances on the production of PGE2 was evaluated in percentage with respect to the control values.
(§2) Experiments were performed on mice peritoneal cells C57BL/6 (Charles River, Germany—AnLabu).
(§3) NO production was induced using IFN-g (5000 pg/mL) plus LPS (100 pg/mL); evaluated (Griess reagent) after 24 h of the cell cultivation (2×10^6/mL). PGE2 was induced using LPS (10 ng/mL); evaluated (ELISA) following 6 h cultivation of cells (3×10^6/mL). Cell longevity was evaluated using WST-1 (tetrazolium salt), following 24 h cultivation of cells (1×10^6/mL). The values mentioned in the table represent the effects of the substances tested in a concentration of 50 μmol·l^−1.

[2] = test system: production of nitric oxide (NO); assay: Production of nitric oxide (NO) in cultures of mouse peritoneal cells stimulated with IFN-γ plus LPS (Griess reagent); format: cell-based, mice; details: substance 50 μmol·l^−1, IFN-g plus LPS, 24 h
Experimental: as §1
NO is a product of the metabolism of L-arginine, quickly changes to […], which are then measured using the Griess reagent system. Under normal conditions, the production of NO is practically zero. It only occurs after some stimulation. In these experiments, interferon-gamma (IFN-γ) and bacterial lipopolysacharide (LPS) were used as stimulators. The values of NO induced in this way fluctuated in the individual experiments in a range from 52 to 89 μmol·l^−1; for the purposes of comparison between the experiments they were considered as 100%. The production of NO after the application of the substances was expressed in percentage with respect to the control values. (The lower the value, the higher the inhibition effect of the substances on NO production.) IC50 are the concentrations of the substances reducing the production of NO by 50% with respect to the controls.
as §2, §3

peritoneal cells of mice = assay: Cell viability of mouse peritoneal cells (WST-1 kit); format: cell-based; details: substance 50 μmol·l^−1, 24 h; for Cell viabilities in % of the controls: Table 3B
Experimental: Cell viability was determined in the standard way using a WST-1 kit (Roche). The values of the viability of the control cells were for the purposes of comparison between experiments considered as 100%. The influence of the substances on the longevity of the cells was evaluated in percentage with respect to the control values.
as §2, §3

| Compound | Production of prostaglandins IC50 (μmol · 1^−1) average value and range of values [1] | Production of nitric oxide in % of the controls ([2]; Table 3B) | Cell viabilities in % of the controls (peritoneal cells of mice) | Production of prostaglandins in % of the controls ([1]; Table 3A, substance 50 μmol·l^−1, 6 h) | Production of nitric oxide in % of the controls ([2]; Table 3A) | Cell viability in % of the controls (peritoneal cells of mice; Table 3A) |
| --- | --- | --- | --- | --- | --- | --- |
| CCCCc1c(-c2ccco2)nc(N)nc1-c1cccc2ccccc12 [Substance 138] | 43.57 ± 4.53; n = 2 μmol · 1^−1 | 42.92 ± 3.77; n = 4 % of the controls | 93.61 ± 5.46; n = 4 % of the controls |  |  |  |
| CCCCc1c(-c2ccsc2)nc(N)nc1-c1cc2ccccc2o1 [Substance 124] | 62.48 ± 5.45; n = 2 μmol · 1^−1 | 33.45 ± 13.04; n = 6 % of the controls | 94.41 ± 9.01; n = 8 % of the controls |  |  |  |
| CCCCc1c(-c2ccsc2)nc(N)nc1-c1ccco1 [Substance 112] | 55.24 ± 7.98; n = 4 μmol · 1^−1 | 47.96 ± 4.90; n = 6 % of the controls | 92.77 ± 7.75; n = 12 % of the controls |  |  |  |
| CCCCc1c(-c2ccccc2)nc(N)nc1-c1ccc(F)cc1 [Substance 69] | 75.40 ± 21.62; n = 4 μmol · 1^−1 | 71.24 ± 4.28; n = 4 % of the controls | 121.04 ± 9.53; n = 4 % of the controls |  |  |  |
| CCCCc1c(Cl)nc(N)nc1-c1ccccc1 [Substance 68] | 18.12 ± 0.99; n = 6 μmol · 1^−1 | 27.78 ± 2.11; n = 4 % of the controls | 94.17 ± 8.43; n = 8 % of the controls |  |  |  |
| CCCCc1c(-c2ccncc2)nc(N)nc1-c1cccs1 [Substance 91] | 29.01 ± 5.46; n = 4 μmol · 1^−1 | 63.95 ± 2.00; n = 4 % of the controls | 81.38 ± 6.86; n = 4 % of the controls |  |  |  |
| CCCCc1c(Cl)nc(N)nc1-c1cc2ccccc2o1 [Substance 126] | 87.25 ± 13.99; n = 2 μmol · 1^−1 | 78.18 ± 9.03; n = 4 % of the controls | 102.56 ± 5.92; n = 4 % of the controls |  |  |  |
| CCCCc1c(-c2ccc(F)cc2)nc(N)nc1-c1cccs1 [Substance 87] | 23.05 ± 11.33; n = 4 μmol · 1^−1 | 48.59 ± 10.92; n = 3 % of the controls | 125.94 ± 4.49; n = 8 % of the controls |  |  |  |
| CCCCc1c(Cl)nc(Sc2ccccc2)nc1Cl [Substance 148] | 77.50 ± 16.19; n = 4 μmol · 1^−1 | 61.85 ± 10.25; =10 % of the controls | 90.49 ± 4.62; n = 12 % of the controls |  |  |  |
| Cc1c(Cl)nc(N=CN(C)C)nc1Cl [Substance 13] |  |  |  | 59.98 ± 1.82 % of the controls | 21.39 ± 4.78 % of the controls | 77.29 ± 3.69 % of the controls |
| CCCCc1c(-c2ccc(F)cc2)nc(N)nc1-c1ccoc1 [Substance 103] | 66.80 ± 8.64; n = 4 μmol · 1^−1 | 66.44 ± 3.19; n = 6 % of the controls | 147.62 ± 3.25; n = 8 % of the controls |  |  |  |
| CCCCc1c(-c2ccoc2)nc(N)nc1-c1ccsc1 [Substance 113] | 85.05 ± 9.96; n = 4 μmol · 1^−1 | 63.79 ± 1.64; n = 6 % of the controls | 101.51 ± 12.74; n = 8 % of the controls |  |  |  |
| CCCCc1c(-c2ccoc2)nc(N)nc1-c1ccoc1 [Substance 105] | 50.30 ± 9.52; n = 4 μmol · 1^−1 | 49.07 ± 4.67; n = 4 % of the controls | 101.86 ± 5.13; n = 4 % of the controls |  |  |  |
| CCCCc1c(-c2ccsc2)nc(N)nc1-c1cccs1 [Substance 111] | 56.94 ± 12.51; n = 6 μmol · 1^−1 | 57.52 ± 1.81; n = 4 % of the controls | 105.47 ± 5.51; n = 8 % of the controls |  |  |  |
| CCCCc1c(Cl)nc(NC2CC2)nc1Cl [Substance 143] | 85.94 ± 12.69; n = 4 μmol · 1^−1 | 78.33 ± 13.82; n = 6 % of the controls | 104.31 ± 8.28; n = 8 % of the controls |  |  |  |
| CCCCc1c(-c2ccc(OC)cc2)nc(N)nc1-c1cccs1 [Substance 88] | 14.19 ± 4.00; n = 6 μmol · 1^−1 | 69.14 ± 9.10; n = 2 % of the controls | 125.52 ± 5.28; n = 8 % of the controls |  |  |  |
| CCCCc1c(-c2ccoc2)nc(N)nc1-c1cccc2ccccc12 [Substance 139] | 18.35 ± 3.26; n = 4 μmol · 1^−1 | 70.38 ± 4.95; n = 6 % of the controls | 104.41 ± 10.83; n = 8 % of the controls |  |  |  |
| CCCCc1c(-c2ccccc2)nc(N)nc1-c1cccs1 [Substance 86] | 27.57 ± 8.77; n = 4 μmol · 1^−1 | 47.57 ± 8.58; n = 6 % of the controls | 101.59 ± 9.19; n = 8 % of the controls |  |  |  |
| CCCCc1c(-c2cccnc2)nc(N)nc1-c1ccsc1 [Substance 110] | 64.72 ± 14.00; n = 2 μmol · 1^−1 | 62.00 ± 2.93; n = 4 % of the controls | 90.73 ± 10.89; n = 4 % of the controls |  |  |  |
| CCCCc1c(-c2ccncc2)nc(N)nc1-c1cccc2ccccc12 [Substance 137] | 28.00 ± 9.43; n = 2 μmol · 1^−1 | 58.04 ± 6.68; n = 4 % of the controls | 85.07 ± 1.02; n = 4 % of the controls |  |  |  |
| CCCCc1c(-c2ccco2)nc(N)nc1-c1ccco1 [Substance 100] | 22.46 ± 7.25; n = 2 μmol · 1^−1 | 33.70 ± 2.71; n = 6 % of the controls | 69.04 ± 4.47; n = 8 % of the controls |  |  |  |
| CCCCc1c(Cl)nc(NC(C)=O)nc1Cl [Substance 147] | 80.60 ± 4.63; n = 2 μmol · 1^−1 | 15.32 ± 2.33; n = 6 % of the controls | 113.28 ± 8.99; n = 8 % of the controls |  |  |  |
| CCCCc1c(-c2ccc(OC)cc2)nc(N)nc1-c1ccsc1 [Substance 109] | 4.9 ± 1.72; n = 4 μmol · 1^−1 | 73.38 ± 4.58; n = 6 % of the controls | 120.58 ± 7.53; n = 8 % of the controls |  |  |  |
| CCCCc1c(-c2ccccc2)nc(N)nc1-c1ccco1 [Substance 94] | 38.84 ± 15.99; n = 4 μmol · 1^−1 | 39.73 ± 5.57; n = 6 % of the controls | 104.21 ± 14.38; n = 8 % of the controls |  |  |  |
| CCCCc1c(Cl)nc(NN)nc1Cl.Cl [Substance 146] | 1.61 ± 0.27; n = 4 μmol · 1^−1 | 86.28 ± 9.01; n = 6 % of the controls | 103.28 ± 4.62; n = 8 % of the controls |  |  |  |
| CCCCc1c(Cl)nc(N)nc1-c1cc2ccccc2s1 [Substance 132] | 20.76 ± 9.35; n = 4 μmol · 1^−1 | 49.61 ± 6.36; n = 4 % of the controls | 84.08 ± 4.71; n = 8 % of the controls |  |  |  |
| CCCCc1c(-c2ccc(OC)cc2)nc(N)nc1-c1ccc(OC)cc1 [Substance 74] | 38.22 ± 5.59; n = 2 μmol · 1^−1 | 86.27 ± 4.16; n = 4 % of the controls | 98.75 ± 5.63; n = 12 % of the controls |  |  |  |
